Source: article PMC5228125 (Scientific Reports, 2017)

Target: SARS-CoV PLpro (Severe acute respiratory syndrome coronavirus, UniProt P0C6X7)
Assay type: cell-based

CC(=O)Nc1cccc(CNC(=O)C2CCN([C@H](C)c3cccc4ccccc34)CC2)c1 [compound 3e]
Effect on SARS-CoV PLpro activity in the biosensor assay: blocks
